These results are taken from article PMC3923439, “Anti-inflammatory properties of a novel peptide interleukin 1 receptor antagonist” (Journal of Neuroinflammation, 2014).

Positions of bridges follow the written chain, without caps; N, C: chain ends. Chains are numbered I, II in the order given. No end group written: not given here.

Assay [1] relates to HEK-Blue IL-1β cells (IL-1RI / NF-κB). Nature of the assay: IL-1β-induced NF-κB activation, SEAP reporter. The format is cell-based. As to conditions: 1.2 pM IL-1β, 24 hours, SEAP read at 600 nm, four independent experiments. On the procedure:
HEK-Blue IL-1β cells that contained an IL-1β-sensitive reporter (InvivoGen, San Diego, CA, USA) and HEK-Blue IL-6 cells that contained an IL-6-sensitive reporter (InvivoGen) were grown at 37°C with 5% CO2 in Dulbecco’s modified Eagle’s medium (DMEM) supplemented with 5% (vol/vol) fetal calf serum (FCS), 4.5 g/L glucose, 2 mM GlutaMAX medium, 100 U/ml penicillin, 100 μg/ml streptomycin (all obtained from Gibco BRL/Life Technologies, Taastrup, Denmark), 100 μg/ml zeocin, 200 μg/ml hygromycin and 100 μg/ml Normocin (all purchased from InvivoGen).
HEK-Blue IL-1β cells allow the monitoring of the activation of the NF-κB pathway specifically in response to IL-1β. They express a NF-κB-inducible secreted embryonic alkaline phosphatase (SEAP) reporter gene. The binding of IL-1β to its receptor IL-1RI on the surface of HEK-Blue IL-1β cells triggers a signaling cascade that leads to the activation NF-κB and the subsequent production of SEAP. HEK-Blue IL-1β cells were grown as described above. The cells were seeded onto a 96-well plate at a density 3.5 × 10^5 cells/ml. For the NF-κB activation assay, the cells were treated with 1.2 pM IL-1β alone or together with sIL-1RI, IL-1Ra or various concentrations of Ilantide. After 24 hours of incubation at 37°C, 150 μl of the cell supernatants were added to each well of a 96-well plate together with 50 μl of QUANTI-Blue (InvivoGen), incubated at 37°C for 40 minutes and measured in an enzyme-linked immunosorbent assay (ELISA) reader at 600 nm to determine the expression levels of reporter genes activated by NF-κB.

Assay [2] relates to double-Ig module (Ig1-Ig2) of NCAM. Nature of the assay: Surface plasmon resonance, negative control protein. The format is binding. As to conditions: SPR. On the procedure: The binding analysis was performed using a Biacore 2000 instrument (GE Healthcare Life Sciences) that contained 150 mM NaCl as running buffer at 25°C with 10 mM sodium phosphate (pH 7.4). The flow rate was 5 μl/min during immobilization. Ilantide peptide, IL-1β or IL-1Ra was immobilized on a CM4 sensor chip according to the manufacturer’s instructions, after which the recombinant ectodomain of IL-1RI (R&D Systems) was injected. The neural cell adhesion molecule (NCAM) immunoglobulin modules 1 and 2 (Ig1 and Ig2) were used as a negative control protein [9]. The data were analyzed using nonlinear curve-fitting with the manufacturer’s software.

For assay [3], the system named is neonatal rat pancreatic islets. Nature of the assay: IL-1β-induced rat islet cell apoptosis (cell death detection ELISA). The format is cell-based. On the procedure:
Neonatal rat islets were isolated from 3- to 6-day-old outbred Wistar rats (Taconic, Ejby, Denmark) as previously described. Islets were precultured and maintained in RPMI 1640 medium (Gibco/Life Technologies) supplemented with 20 mmol/L HEPES buffer, 0.038% (wt/vol) NaHCO3, 100 U/ml penicillin, 100 µg/ml streptomycin and 10% (vol/vol) newborn calf serum (NCS) at 37°C in humidified atmospheric air. Prior to experimentation, the islets were randomly distributed to 24-well dishes and incubated for 2 hours in RPMI 1640 medium supplemented as described above, but with 0.5% (vol/vol) NCS relevant reagents were added as indicated.
For cell death detection, rat islets were incubated with 150 pg/ml IL-1β (BD Pharmingen, San Diego, CA, USA) alone or in combination with various concentrations of Ana and Ilantide for 24 hours at 37°C in humidified atmospheric air. Rat islet cell death was assessed by cell death detection ELISA (Roche, Lund, Sweden) as previously described. As a surrogate measure of nitric oxide production, Griess reagent (1:1 aqueous mixture of 0.1% naphthylethylenediamine hydrochloride and 1% sulfanilamide + 5% H3PO4) was mixed in a 1:1 ratio with 100 μl of supernatant samples to determine the nitrite content in supernatants from the cell death assays described above.
Figure 7 Effect of Ilantide on interleukin 1β-induced rat islet cell apoptosis. Rat pancreatic islets were preincubated for 30 minutes in the absence or presence of various concentrations of anakinra (A), Ilantide-m (B) or Ilantide-t (C) and then exposed to […] interleukin 1β (IL-1β) for 24 hours. Cytokine-induced apoptosis was determined by cell death detection enzyme-linked immunosorbent assay. Apoptosis rates are presented as fold induction compared with untreated control islets (white bars). The data from four independent experiments are presented as mean ± SEM. *P < 0.05 and **P < 0.01 compared with cultures treated with IL-1β alone (one-way analysis of variance followed by Dunnett’s post hoc test).
(In general: In an ELISA, binding on a coated surface is turned into a signal by an enzyme label.)

For assay [4], the system named is experimental autoimmune encephalomyelitis. Kind of assay: Experimental autoimmune encephalomyelitis. The format is in vivo, rat. The conditions noted are these: female Lewis rats. The protocol: Experimental autoimmune enchephalomyelitis was induced in female Lewis rats by guinea pig myelin basic protein (MBP) emulsified with CFA (Sigma-Aldrich) that contained 1.0 mg/ml heat-inactivated M. tuberculosis. While the animals were under inhalation anesthesia (3% isoflurane; Baxter), 200 μl of an emulsion that contained 200 μg of MBP were subcutaneously injected at the tail base (dpi 0). Between dpi 0 and 21, weight and clinical signs of EAE were recorded daily for all of the animals. Clinical signs were scored as follows: 0 (no abnormality), 0.5 (weak tail), 1 (limp tail), 2 (mild palsy of one or both hind legs), 3 (severe palsy of one or both hind legs), 4 (complete paralysis of one or both hind legs), 5 (paralysis of one or both hindlimbs and the beginning of paralysis of the forelimbs) and 6 (moribund). Animals with a clinical score ≥4 were immediately killed. From dpi 10 forward, the animals were treated once daily for 5 consecutive days with Ilantide-t (10 mg/kg, 1 ml/kg, s.c.) or PBS (1.0 ml/kg s.c.). Only animals that reached a clinical score ≥1 before dpi 14 were included in the study.

The mark [5] stands for this setting: 10 mg/kg s.c. once daily dpi 10 to 14.
The mark [6] stands for this setting: 10 mg/kg s.c. once daily for 5 days.

For the substance “I: SGRKSSKMQAKK-NH2 / II: SGRKSSKMQAK / III: SGRKSSKMQA / IV: SGRKSSKMQA (amide I:11-IV:C, I:12-II:C, II:11-III:C; C-terminus assumed) [Ilantide-t]”, in assay [1], the “Inhibition of NF-κB activation induced by IL-1β” value is “dose-dependently inhibited”. The “Binding to double-Ig module of NCAM (negative control)” value in assay [2] was “no significant binding”. Also, the “Reduction of IL-1-induced apoptosis relative to the maximal effect of Ana” value in assay [3] (Ilantide-t in high molar excess) is listed as 1.5 ×. For the same substance, in assay [3] (rat islets, 30 minutes preincubation, 8.68 nM (150 pg/ml) IL-1β, 24 hours, four independent experiments), the “Maximal inhibition of IL-1β-induced apoptosis” value was 93%. Further, in assay [4] (setting [5]), the “Clinical signs of EAE” value is given as “attenuated” and the “Effect on weight change or survival in EAE” value was “no significant effects”. Further, in assay [4] (setting [6]), the “Mean clinical signs of EAE versus vehicle, first and second days after onset” value is given as “significantly lower”; the “Mean clinical signs of EAE versus vehicle, later time points” value is “no difference”.

Regarding “IL-1Ra: recombinant interleukin 1 receptor antagonist purchased from R&D Systems”, the “Inhibition of NF-κB activation induced by IL-1β” value in assay [1] is listed as “dose-dependently inhibited”. The “Binding to double-Ig module of NCAM (negative control)” value in assay [2] is “no significant binding”.
